These are literature values, as cited in US4139504A, “Novel nonapeptides, intermediates therefor, and compositions and methods employing said nonapeptides” (priority 1977, dated 1979).

Data set [1] has as its system brain opiate receptor sites.
Data set [2] deals with rat. The note with it: injected directly into the brain of the rat.

Consider “H--Tyr--Gly--Gly--Phe--Met--OH [methionine enkephalin]”, for which the “binding to partially purified brain opiate receptor sites” value in data set [1] was “binds stereo-specifically”. Further, in data set [2], the analgesic activity result is “only weak analgesic agent of short duration”.
